Numbered stars: 1 amine (or outer) side, 2 acyl side, 3 side chain; on linkers, the order of the positions; unused ones are H or OH. Square brackets hold non-standard residues; d marks the D form. Peptide text beside a SMILES is read from it. X1 = CC(C)([C@@H](O)CNCCCN)n1cc([C@@H](O)[C@H](N[*:1])C(=O)[*:2])c2ccccc21; Ala(3R-Me,3-isobutenyl) = CC(C)=C[C@@H](C)[C@H](N)C(=O)O; NMeLeu(5-OH,4R) = CN[C@@H](C[C@@H](C)CO)C(=O)O; Phe(βR-OMe) = CO[C@H](c1ccccc1)[C@H](N)C(=O)O; NMeL = CN[C@@H](CC(C)C)C(=O)O
Target: ATP-dependent Clp protease ATP-binding subunit ClpC1 (Mycobacterium tuberculosis (strain ATCC 25618 / H37Rv), UniProt P9WPC9)
Assay: Isothermal Titration Calorimetry (ITC)
Conditions: pH 7.5; 25 °C
Experimental: Isothermal titration calorimetry experiments were performed using an iTC200 (GEHealthcare) at 25 °C, with 15-20 μM ClpC1 (in 20 mM Tris-HCl, pH 7.5, 300 mM NaCl, 1 mM EDTA, 1 mM Tris(2-carboxyethyl) phosphine, 9% DMSO) in the sample cell. Typically, 19 injections of 2 μl of 150-200 μM CymA1 solution in the same bufferwere injected into the sample cell at 2.5-min intervals.

Chain of ATP-dependent Clp protease ATP-binding subunit ClpC1 (P9WPC9 whole entry): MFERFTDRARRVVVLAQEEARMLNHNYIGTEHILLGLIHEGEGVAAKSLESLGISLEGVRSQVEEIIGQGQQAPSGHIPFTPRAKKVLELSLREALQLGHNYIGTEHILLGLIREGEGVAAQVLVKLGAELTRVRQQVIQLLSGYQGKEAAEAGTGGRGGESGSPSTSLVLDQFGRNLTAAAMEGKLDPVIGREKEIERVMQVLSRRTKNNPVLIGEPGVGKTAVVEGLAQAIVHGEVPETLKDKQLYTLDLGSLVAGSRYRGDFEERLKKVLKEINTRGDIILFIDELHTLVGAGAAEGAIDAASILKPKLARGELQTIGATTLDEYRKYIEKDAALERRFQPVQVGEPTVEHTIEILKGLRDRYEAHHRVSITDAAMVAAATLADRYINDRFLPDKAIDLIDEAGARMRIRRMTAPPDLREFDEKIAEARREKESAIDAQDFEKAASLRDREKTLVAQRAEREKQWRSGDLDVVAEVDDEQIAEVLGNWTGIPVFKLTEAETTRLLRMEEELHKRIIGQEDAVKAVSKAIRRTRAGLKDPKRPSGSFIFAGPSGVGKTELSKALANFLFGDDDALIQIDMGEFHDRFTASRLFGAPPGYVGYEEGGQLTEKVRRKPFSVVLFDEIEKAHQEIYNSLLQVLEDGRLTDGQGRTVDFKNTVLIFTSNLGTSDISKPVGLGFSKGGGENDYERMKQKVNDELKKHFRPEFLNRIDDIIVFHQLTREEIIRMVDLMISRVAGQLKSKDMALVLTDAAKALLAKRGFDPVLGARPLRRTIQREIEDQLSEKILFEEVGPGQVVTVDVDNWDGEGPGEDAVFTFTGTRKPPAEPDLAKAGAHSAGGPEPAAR

CO[C@H](c1ccccc1)[C@@H]1NC(=O)[C@H](C)NC(=O)[C@H](C[C@@H](C)CO)N(C)C(=O)[C@H]([C@H](O)c2cn(C(C)(C)[C@@H](O)CNCCCN)c3ccccc23)NC(=O)[C@H]([C@H](C)C=C(C)C)NC(=O)[C@H](CC(C)C)N(C)C(=O)[C@H](C(C)C)NC1=O [Cyclomarin A1 (CymA1)] (cyclo(A[Phe(βR-OMe)]V[NMeL][Ala(3R-Me,3-isobutenyl)][X1][NMeLeu(5-OH,4R)]))
Kd: 0.0175 µM

— BindingDB's records for doi:10.1074/jbc.M113.493767 (Novartis Institute For Tropical Diseases, 2013)
